Read-outs that look alike come from different tables or passages of the source.
Legend:
rat α7 nAChR = rat α7 nAChR (Rattus norvegicus, UniProt Q05941); test: Receptor binding assay, rat α7 nAChR
Experimental: (§1) Receptor Binding Assays. The affinities of 1-4 for the rat α4β2 and α7 nAChRs were determined as described previously (Mullen, et al., J. Med. Chem.; 2000;43(22):4045-50). Affinities for the rat 5-HT3 receptor were also determined as described previously (Macor, et al., Bioorg. Med. Chem. Lett. 2001;11(3):319-21). All Ki determinations were done using 5-7 concentrations. […] There was a wide margin in selectivity compared to the α4β2 receptor subtype. Also included are the relative binding affinities to the 5-HT3 receptor, which has high sequence homology to the α7-nAChR.

[1] = Rodent in vivo biodistribution (brain kinetics); parameters: species or system male CD-1 mice; conditions: for Uptake within the brain (in words): i.v. radiotracer; for Uptake/retention in target tissue (hippocampus): mouse hippocampus vs other brain substructures, FIG. 1 / FIG. 3; for Brain distribution, CB: cerebellum; for Brain distribution, CB / Brain distribution, CTX / Brain distribution, HIPP / Brain distribution, HYPO / Brain distribution, STR / Brain distribution, THAL / Brain distribution, F. CTX / Brain distribution, S. COLL: mice; for Brain distribution, CTX: cortex; for Brain distribution, HIPP: hippocampus; for Brain distribution, HYPO: hypothalamus; for Regional selectivity of brain uptake: all time points, in words; for Brain distribution, STR: striatum; for Brain distribution, THAL: thalamus
Experimental: (§2) Rodent In Vivo Biodistribution Studies of 1-4. Male CD-1 mice weighing between 20 and 25 g received an injection of 3.7 MBq (100 μCi) for 1 and 2 and 0.67 MBq ([…]) for 3 and 4 through the tail vein. The corresponding amounts administered were 0.2-0.8 μg/kg for 1 and 2 and 0.01-0.02 μg/kg for 3 and 4. For kinetic studies of 1-4, the mice were killed by cervical dislocation at 5, 15, 30 and 60 min after intravenous injection of radiotracer in 200 μL saline vehicle. The brains were removed and placed on ice, and the cerebellum, olfactory bulb, hypothalamus, hippocampus, striatum, cortex, brain stem and thalamus were harvested. A 45 min time point was obtained for 2 and one at 120 min for 3 and 4. The tissue samples were weighed and their radioactivity determined in an automated □ counter (1282 Compugamma CS; Pharmacia/LKB Nuclear Inc., Gaithersburg, Md.). The radioactivity concentration in aliquots of the injected tracer were determined along with the samples and served as standards for the calculation of percentage injected dose per gram of tissue (% ID/g). To assess binding specificity, subgroups of mice were treated with 10 mg/kg nicotine (for D or increasing doses of unlabeled 4 (0.01-10 mg/kg) 5 min prior to injection of radiotracer. Mice were killed at 30 and 60 min after blockade for 3 and 4, respectively.

α7-nAChR = biological target: T1, α7-nAChR (Mus musculus, UniProt P49582); test: In vivo binding specificity (receptor blockade) study; parameters: species or system male CD-1 mice
T1 construct: Male CD-1 mice weighing between 20 and 25 g received an injection; from tissue; host or cells: brain of living male CD-1 mice (hippocampus, cortex and other regions)
T1 sequence (P49582 23-502): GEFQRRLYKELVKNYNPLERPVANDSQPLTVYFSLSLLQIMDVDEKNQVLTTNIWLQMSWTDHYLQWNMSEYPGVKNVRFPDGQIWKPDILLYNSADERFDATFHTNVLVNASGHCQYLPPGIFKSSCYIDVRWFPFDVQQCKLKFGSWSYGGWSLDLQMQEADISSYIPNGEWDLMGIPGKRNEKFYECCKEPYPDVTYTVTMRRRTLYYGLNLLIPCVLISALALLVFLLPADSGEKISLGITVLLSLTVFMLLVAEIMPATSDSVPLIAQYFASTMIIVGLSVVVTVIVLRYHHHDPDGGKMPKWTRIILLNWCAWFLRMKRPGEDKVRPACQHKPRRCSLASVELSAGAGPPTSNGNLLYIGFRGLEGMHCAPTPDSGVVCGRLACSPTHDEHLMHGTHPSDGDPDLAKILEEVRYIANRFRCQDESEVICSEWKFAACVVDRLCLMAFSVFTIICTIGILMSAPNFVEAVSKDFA
Experimental: as §2

rat α4β2 nAChR = rat α4β2 nAChR (Rattus norvegicus, UniProt P09483+P12390); test: Receptor binding assay, rat α4β2 nAChR (selectivity); conditions: binding selectivity vs rat α4β2 nAChR
Chain of rat α4β2 nAChR (P09483 31-630): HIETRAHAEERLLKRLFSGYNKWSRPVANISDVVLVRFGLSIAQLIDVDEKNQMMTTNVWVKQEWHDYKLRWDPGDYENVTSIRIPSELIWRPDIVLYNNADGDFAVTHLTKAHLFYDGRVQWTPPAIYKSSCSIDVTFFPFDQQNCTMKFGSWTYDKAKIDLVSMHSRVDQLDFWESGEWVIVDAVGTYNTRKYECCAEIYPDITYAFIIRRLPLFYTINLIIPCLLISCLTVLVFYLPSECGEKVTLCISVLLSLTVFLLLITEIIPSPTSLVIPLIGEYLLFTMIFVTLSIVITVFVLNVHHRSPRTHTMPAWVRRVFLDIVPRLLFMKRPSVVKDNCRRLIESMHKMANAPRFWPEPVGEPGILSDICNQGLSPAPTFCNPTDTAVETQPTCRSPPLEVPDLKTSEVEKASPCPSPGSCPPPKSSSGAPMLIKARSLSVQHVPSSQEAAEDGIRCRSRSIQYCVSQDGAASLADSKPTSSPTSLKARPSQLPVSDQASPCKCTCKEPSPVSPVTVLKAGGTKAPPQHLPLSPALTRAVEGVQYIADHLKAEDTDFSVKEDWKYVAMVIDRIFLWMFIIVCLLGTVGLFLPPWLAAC
Chain of rat α4β2 nAChR (P12390 25-500): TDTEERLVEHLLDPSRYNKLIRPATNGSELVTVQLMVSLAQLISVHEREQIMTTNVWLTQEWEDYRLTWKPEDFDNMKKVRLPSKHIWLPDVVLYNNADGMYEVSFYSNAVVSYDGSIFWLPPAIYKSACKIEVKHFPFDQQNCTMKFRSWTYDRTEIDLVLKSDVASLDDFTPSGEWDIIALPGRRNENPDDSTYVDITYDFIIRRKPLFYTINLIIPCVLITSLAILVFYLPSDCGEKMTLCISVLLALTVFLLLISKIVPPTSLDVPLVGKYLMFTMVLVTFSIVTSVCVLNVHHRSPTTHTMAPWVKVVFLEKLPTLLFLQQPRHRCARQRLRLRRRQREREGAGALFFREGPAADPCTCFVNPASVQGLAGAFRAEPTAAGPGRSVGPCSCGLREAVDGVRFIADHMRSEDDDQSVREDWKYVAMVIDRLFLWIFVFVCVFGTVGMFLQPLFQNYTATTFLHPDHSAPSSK
Experimental: as §1

rat 5-HT3 receptor = biological target: T2, rat 5-HT3 receptor (Rattus norvegicus, UniProt P35563); test: Receptor binding assay, rat 5-HT3 receptor (selectivity); conditions: binding selectivity vs rat 5-HT3 receptor
T2 sequence (P35563 24-483): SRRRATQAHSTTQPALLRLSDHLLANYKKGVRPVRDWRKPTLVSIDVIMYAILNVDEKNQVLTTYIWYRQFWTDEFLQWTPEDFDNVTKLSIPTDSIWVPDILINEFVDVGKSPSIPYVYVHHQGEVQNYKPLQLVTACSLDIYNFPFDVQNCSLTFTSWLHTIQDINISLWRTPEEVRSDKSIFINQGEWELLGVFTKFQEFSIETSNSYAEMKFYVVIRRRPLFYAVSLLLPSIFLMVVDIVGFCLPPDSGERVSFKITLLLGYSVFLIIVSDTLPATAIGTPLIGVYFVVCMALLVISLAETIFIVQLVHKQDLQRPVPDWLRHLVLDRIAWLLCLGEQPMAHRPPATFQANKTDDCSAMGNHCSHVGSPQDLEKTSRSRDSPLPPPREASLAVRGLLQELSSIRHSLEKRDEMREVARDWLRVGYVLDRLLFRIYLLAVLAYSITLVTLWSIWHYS
Experimental: as §1

[2] = rat α7 nAChR, nonradioactive analogs, 5-7 concentrations, read-out: Ki
[3] = 30 min, low specific activity (LSA)
[4] = 60 min, low specific activity (LSA)

Chain of rat α7 nAChR (Q05941 23-502): as the sequence (P49582 23-502) above, with T402A counted along it

Structure (SMILES): [125I]c1occc1-c1cnc2c(c1)CC1(CN3CCC1CC3)O2 (stereo not drawn) [Compound 4, (2′R)-5′-(2-[^125I]iodo-3-furanyl)spiro[1-azabicyclo[2.2.2]octane]-3,2′(3′H)-furo[2,3-b]pyridine]
- Ki (rat α7 nAChR; [2]): 0.26 nM
- Uptake within the brain (in words) ([1]; mouse brain): gained ready access to the brain
- Uptake/retention in target tissue (hippocampus) [1]: modest but higher uptake in target tissue (hippocampus) than within other brain substructures
- Receptor blockade study (α7-nAChR; unlabeled 4 (0.01-10 mg/kg) 5 min before radiotracer, mice killed at 60 min, FIG. 4): significant blockade in the target tissue and slightly less so in cortex

Structure (SMILES): [11CH3]Sc1ccc(C(=O)NC2CN3CCC2CC3)cc1 [Compound 2, N—(R)-1-aza-bicyclo[2.2.2]oct-3-yl-4-[^11C]methylsulfanyl-benzamide]
- Ki (rat α7 nAChR): 5.8 nM
- α7/α4 (rat α4β2 nAChR): 14,000 (1)
- α7/5-HT3 (rat 5-HT3 receptor): 1100 (1)
- Brain distribution, CB ([1]; 5 min post i.v. injection): 0.23 ± 0.01 % ID/g
- Brain distribution, CB ([1]; 15 min post i.v. injection): 0.26 ± 0.04 % ID/g
- Brain distribution, CB ([1]; 30 min post i.v. injection): 0.14 ± 0.03 % ID/g
- Brain distribution, CB ([1]; 45 min post i.v. injection): 0.09 ± 0.01 % ID/g
- Brain distribution, CB ([1]; 60 min post i.v. injection): 0.08 ± 0.01 % ID/g
- Brain distribution, CTX ([1]; 5 min post i.v. injection): 0.16 ± 0.04 % ID/g
- Brain distribution, CTX ([1]; 15 min post i.v. injection): 0.17 ± 0.03 % ID/g
- Brain distribution, CTX ([1]; 30 min post i.v. injection): 0.14 ± 0.05 % ID/g
- Brain distribution, CTX ([1]; 45 min post i.v. injection): 0.10 ± 0.02 % ID/g
- Brain distribution, CTX ([1]; 60 min post i.v. injection): 0.10 ± 0.02 % ID/g
- Brain distribution, HIPP ([1]; 5 min post i.v. injection): 0.15 ± 0.01 % ID/g
- Brain distribution, HIPP ([1]; 15 min post i.v. injection): 0.24 ± 0.04 % ID/g
- Brain distribution, HIPP ([1]; 30 min post i.v. injection): 0.14 ± 0.03 % ID/g
- Brain distribution, HIPP ([1]; 45 min post i.v. injection): 0.13 ± 0.02 % ID/g
- Brain distribution, HIPP ([1]; 60 min post i.v. injection): 0.12 ± 0.02 % ID/g
- Brain distribution, HYPO ([1]; 5 min post i.v. injection): 0.30 ± 0.02 % ID/g
- Brain distribution, HYPO ([1]; 15 min post i.v. injection): 0.55 ± 0.05 % ID/g
- Brain distribution, HYPO ([1]; 30 min post i.v. injection): 0.22 ± 0.04 % ID/g
- Brain distribution, HYPO ([1]; 45 min post i.v. injection): 0.22 ± 0.09 % ID/g
- Brain distribution, HYPO ([1]; 60 min post i.v. injection): 0.27 ± 0.05 % ID/g
- Regional selectivity of brain uptake ([1]; mouse brain): no regional selectivity
- Uptake within the brain (in words) ([1]; mouse brain): limited uptake
- Brain distribution, STR ([1]; 5 min post i.v. injection): 0.22 ± 0.06 % ID/g
- Brain distribution, STR ([1]; 15 min post i.v. injection): 0.37 ± 0.05 % ID/g
- Brain distribution, STR ([1]; 30 min post i.v. injection): 0.16 ± 0.03 % ID/g
- Brain distribution, STR ([1]; 45 min post i.v. injection): 0.15 ± 0.05 % ID/g
- Brain distribution, STR ([1]; 60 min post i.v. injection): 0.18 ± 0.05 % ID/g
- Brain distribution, THAL ([1]; 5 min post i.v. injection): 0.18 ± 0.02 % ID/g
- Brain distribution, THAL ([1]; 15 min post i.v. injection): 0.26 ± 0.09 % ID/g
- Brain distribution, THAL ([1]; 30 min post i.v. injection): 0.13 ± 0.03 % ID/g
- Brain distribution, THAL ([1]; 45 min post i.v. injection): 0.10 ± 0.01 % ID/g
- Brain distribution, THAL ([1]; 60 min post i.v. injection): 0.14 ± 0.03 % ID/g

Structure (SMILES): [11CH3]N(Cc1ccccc1)c1cnc2c(c1)CC1(CN3CCC1CC3)O2 (stereo not drawn) [Compound 1, (2′R)-N-[^11C]methyl-N-(phenylmethyl)-spiro[1-azabicyclo[2.2.2]octane-3,2′(3′H)-furo[2,3-b]pyridin]-5′-amine]
- Ki (rat α7 nAChR): 0.54 nM
- α7/α4 (rat α4β2 nAChR): >22,000 (1)
- α7/5-HT3 (rat 5-HT3 receptor): 18 (1)
- Brain distribution, F. CTX ([1]; 5 min post i.v. injection): 1.77 ± 0.36 % ID/g
- Brain distribution, F. CTX ([1]; 15 min post i.v. injection): 1.38 ± 0.25 % ID/g
- Brain distribution, F. CTX [1, 3]: 1.28 ± 0.07 % ID/g
- Brain distribution, F. CTX ([1]; 30 min post i.v. injection): 0.95 ± 0.06 % ID/g
- Brain distribution, F. CTX [1, 4]: 1.07 ± 0.15 % ID/g
- Brain distribution, F. CTX ([1]; 60 min post i.v. injection): 0.79 ± 0.11 % ID/g
- Brain distribution, S. COLL ([1]; 5 min post i.v. injection): 1.49 ± 0.50 % ID/g
- Brain distribution, S. COLL ([1]; 15 min post i.v. injection): 1.42 ± 0.26 % ID/g
- Brain distribution, S. COLL [1, 3]: 1.04 ± 0.15 % ID/g
- Brain distribution, S. COLL ([1]; 30 min post i.v. injection): 1.09 ± 0.14 % ID/g
- Brain distribution, S. COLL [1, 4]: 0.88 ± 0.16 % ID/g
- Brain distribution, CB ([1]; 5 min post i.v. injection): 1.66 ± 0.50 % ID/g
- Brain distribution, CB ([1]; 15 min post i.v. injection): 1.38 ± 0.32 % ID/g
- Brain distribution, CB [1, 3]: 1.00 ± 0.06 % ID/g
- Brain distribution, CB ([1]; 30 min post i.v. injection): 1.16 ± 0.19 % ID/g
- Brain distribution, CB [1, 4]: 0.65 ± 0.07 % ID/g
- Brain distribution, CB ([1]; 60 min post i.v. injection): 0.84 ± 0.05 % ID/g
- Brain distribution, CTX ([1]; 5 min post i.v. injection): 1.46 ± 0.48 % ID/g
- Brain distribution, CTX ([1]; 15 min post i.v. injection): 1.28 ± 0.21 % ID/g
- Brain distribution, CTX [1, 3]: 1.16 ± 0.13 % ID/g
- Brain distribution, CTX ([1]; 30 min post i.v. injection): 0.89 ± 0.11 % ID/g
- Brain distribution, CTX [1, 4]: 0.86 ± 0.15 % ID/g
- Brain distribution, CTX ([1]; 60 min post i.v. injection): 0.69 ± 0.10 % ID/g
- Brain distribution, HIPP ([1]; 5 min post i.v. injection): 1.24 ± 0.33 % ID/g
- Brain distribution, HIPP ([1]; 15 min post i.v. injection): 1.12 ± 0.15 % ID/g
- Brain distribution, HIPP [1, 3]: 1.27 ± 0.09 % ID/g
- Brain distribution, HIPP ([1]; 30 min post i.v. injection): 0.91 ± 0.05 % ID/g
- Brain distribution, HIPP [1, 4]: 0.98 ± 0.16 % ID/g
- Brain distribution, HIPP ([1]; 60 min post i.v. injection): 0.81 ± 0.10 % ID/g
- Regional selectivity of brain uptake ([1]; mouse brain): No α7-nAChR-selective, regional brain uptake
- Uptake within the brain (in words) ([1]; mouse brain): limited but measurable uptake within the brain
- Brain distribution, STR ([1]; 5 min post i.v. injection): 1.47 ± 0.38 % ID/g
- Brain distribution, STR ([1]; 15 min post i.v. injection): 1.20 ± 0.15 % ID/g
- Brain distribution, STR [1, 3]: 1.20 ± 0.05 % ID/g
- Brain distribution, STR ([1]; 30 min post i.v. injection): 0.93 ± 0.10 % ID/g
- Brain distribution, STR [1, 4]: 0.75 ± 0.22 % ID/g
- Brain distribution, STR ([1]; 60 min post i.v. injection): 0.69 ± 0.06 % ID/g
- Brain distribution, THAL ([1]; 5 min post i.v. injection): 1.61 ± 0.61 % ID/g
- Brain distribution, THAL ([1]; 15 min post i.v. injection): 1.35 ± 0.28 % ID/g
- Brain distribution, THAL [1, 3]: 1.23 ± 0.12 % ID/g
- Brain distribution, THAL ([1]; 30 min post i.v. injection): 1.11 ± 0.06 % ID/g
- Brain distribution, THAL [1, 4]: 0.81 ± 0.06 % ID/g
- Brain distribution, THAL ([1]; 60 min post i.v. injection): 0.77 ± 0.10 % ID/g
- Receptor blockade in low specific activity (LSA) studies (α7-nAChR; LSA determinations at 30 and 60 min, mice): nor was there evidence of receptor blockade

Structure (SMILES): O=C(NC1CN2CCC1CC2)c1ccc(Br)cc1 (centres unmarked) [3 (precursor)]
- Ki (rat α7 nAChR; [2]): 18 nM
- α7/α4 (rat α4β2 nAChR): 36000 (1)
- α7/5-HT3 (rat 5-HT3 receptor): 280 (1)

Structure (SMILES): O=C(NC1CN2CCC1CC2)c1ccc([125I])cc1 [Compound 3, N-(R)-1-Aza-bicyclo[2.2.2]oct-3-yl-4-[^125I]iodo-benzamide]
- Uptake values within the brain ([1]; mouse brain, FIG. 1): < 0.4 % ID/g
- Uptake/retention in target tissue (hippocampus) [1]: retention within hippocampus, a target tissue, was demonstrated
- Blocking study (nicotine blockade) (α7-nAChR; 10 mg/kg nicotine 5 min before radiotracer, mice killed at 30 min, FIG. 2): failed to demonstrate regionally-selective blockade, although significantly decreased radiotracer uptake was demonstrated in the regions studied
